Source: US5807860A, “Urea derivatives” (Mitsubishi Chemical Corporation, priority 1995, dated 1998)

Tests used:
ACAT of HepG2 cells = biological target: T1, ACAT of HepG2 cells (Homo sapiens, UniProt P35610); experiment: Inhibitory activity against ACAT of HepG2 cells derived from human liver cancer cells; type: cell-based; conditions: radio-labelled oleic acid/BSA complex, cholesterol oleate produced
T1 construct: endogenous in cells; host or cells: HepG2
T1 sequence (P35610 1-550): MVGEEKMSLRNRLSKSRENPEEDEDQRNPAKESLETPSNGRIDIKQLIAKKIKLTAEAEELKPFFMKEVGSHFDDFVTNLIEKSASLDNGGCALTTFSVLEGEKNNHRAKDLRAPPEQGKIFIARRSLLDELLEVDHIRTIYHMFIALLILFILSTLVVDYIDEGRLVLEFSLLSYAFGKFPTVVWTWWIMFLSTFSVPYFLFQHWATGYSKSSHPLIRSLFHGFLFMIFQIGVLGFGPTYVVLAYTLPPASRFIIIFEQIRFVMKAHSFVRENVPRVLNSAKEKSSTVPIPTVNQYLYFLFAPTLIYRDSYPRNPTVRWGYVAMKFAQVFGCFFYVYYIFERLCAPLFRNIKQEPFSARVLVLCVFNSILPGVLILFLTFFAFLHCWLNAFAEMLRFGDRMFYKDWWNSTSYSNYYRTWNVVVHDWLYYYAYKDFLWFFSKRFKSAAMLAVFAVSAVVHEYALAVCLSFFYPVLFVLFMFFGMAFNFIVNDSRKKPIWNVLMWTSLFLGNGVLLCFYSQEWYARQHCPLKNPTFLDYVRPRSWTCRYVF
Description: Inhibitory Activity against ACAT of HepG2 cells Derived from Human Liver Cancer Cells Inhibitory activities of the compounds of the present invention against ACAT were measured by the method described below. HepG2 cells derived from human liver cancer cells were used for the measurement of the ACAT activity. A complex of radio-labelled oleic acid and bovine serum albumin was added to a culture of the cells, and the activity was measured by observing the amount of radio-labelled cholesterol oleate produced from the radio-labelled oleic acid in the cells.

[1] = tested on: high cholesterol fed WISTAR male rats (total cholesterol in the serum); experiment: Cholesterol reduction activity in high cholesterol fed rats; type: in vivo, rat (WISTAR); conditions: Rattus norvegicus, once a day for 5 days, 3.5 hours after final administration, probit analysis
Description: Cholesterol Reduction Activity in High Cholesterol Fed Rats
6-Week old WISTAR male rats were fed with high cholesterol solid feedstuff (Oriental Kobo Co., Ltd., 1% cholesterol, 0.5% cholic acid). Each group consisted of seven rats was compulsorily administered with 0.2% aqueous solution of a test compound (compound of Example 3) once a day at a dose of 1 mg/kg, 3 mg/kg, 10 mg/kg, or 30 mg/kg for 5 days. One group consisted of seven rats was fed with the same high cholesterol feedstuff and used as a control group. After 3.5 hours from the final administration, blood was collected from the abdominal aorta and the total cholesterol in the serum was measured. The reduction rate of total cholesterol was represented as a ratio between a control group not administered with the drug (seven rats) and examined by the probit analysis.

[2] = Moisture absorption under ambient atmosphere (Karl Fisher method); type: physicochemical; conditions: kept under ambient atmosphere for 2 days
Excerpt: Among these compounds, compounds having higher hygroscopic properties may absorb moisture when kept under ambient atmosphere to form substances represented by the following formula: [drawing 15] wherein R1, R2, R3, R4, R5, R6, k, l, and Y are the same as those defined above; symbol "a" represents 0 or an arbitrary integer or represents an arbitrary fraction; and symbol "b" represents an arbitrary integer or an arbitrary fraction. For example, 3.3% weight increase was observed by Karl Fisher method after N-{5-(1-imidazolyl)-2-methoxyphenyl}methyl-N-(1-pentyl)-N'-[2-{3-(4-phenyl-1-piperazinyl)propoxy}-6-methylphenyl]urea dihydrochloride obtained in Example 3 was kept under ambient atmosphere for 2 days.

`CCCCCN(Cc1cc(-n2ccnc2)ccc1OC)C(=O)Nc1c(C)cccc1OCCCN1CCN(c2ccccc2)CC1.Cl.Cl` [Example 3, N-{5-(1-imidazolyl)-2-methoxyphenyl}methyl-N-(1-pentyl)-N'-[2-{3-(4-phenyl-1-piperazinyl)propoxy}-6-methylphenyl]urea dihydrochloride] gave an IC50 (ACAT of HepG2 cells) of 108 nM, an ED10 ([1]; 10% reduction of serum total cholesterol vs control, read-out: Dose of test compound for total cholesterol reduction rate 10%) of 1.9 mg/kg and an ED20 ([1]; 20% reduction of serum total cholesterol vs control, read-out: Dose of test compound for total cholesterol reduction rate 20%) of 3.6 mg/kg. The ED25 ([1]; 25% reduction of serum total cholesterol vs control, read-out: Dose of test compound for total cholesterol reduction rate 25%) was 4.6 mg/kg, the ED30 ([1]; 30% reduction of serum total cholesterol vs control, read-out: Dose of test compound for total cholesterol reduction rate 30%) was 5.7 mg/kg and the ED50 ([1]; 50% reduction of serum total cholesterol vs control, read-out: Dose of test compound for total cholesterol reduction rate 50%) was 12.1 mg/kg. The “weight increase (moisture absorption)” value [2] was 3.3%.
